Results reported in ChEMBL document CHEMBL4351021, “Design, synthesis and biological evaluation of novel FFA1/GPR40 agonists: New breakthrough in an old scaffold” (Eur J Med Chem, 2019).
Values belong to the compound of their own block, whether it stands above or below them. Calls of active or inactive are those of the source. No cut-off for these calls is given here.

Legend:
[1] = Lipophilicity, logD of compound in 1-octanol and PBS mixture in pH 7.4 at 100 uM incubated for 24 under shaking condition by HPLC analysis; format: physicochemical; settings: 1-octanol/PBS
[2] = target: T1, Free fatty acid receptor 1 (Homo sapiens, UniProt O14842); experiment: Agonist activity at FFA1 receptor (unknown origin) stably expressed in CHO cells assessed as increase in calcium flux by Fluo4-AM based FLIPR assay; format: functional, cell-based
Hepatocyte [3] = experiment: Hepatotoxicity in sandwich-cultured Sprague-Dawley rat hepatocytes assessed as inhibition of hepatobiliary transport by measuring biliary excretion index at 25 uM incubated for 15 mins followed by d8-TCA addition and measured after 15 mins by LC-MS/MS analysis; format: toxicity, cell-based; settings: 0.25 h
Hepatocyte [4] = experiment: Hepatotoxicity in sandwich-cultured Sprague-Dawley rat hepatocytes assessed as decrease in accumulation of d8-TCA at 25 uM incubated for 15 mins followed by d8-TCA addition and measured after 15 mins by LC-MS/MS analysis; format: toxicity, cell-based; settings: 0.25 h
Mus musculus [5] = experiment: Antidiabetic activity in ICR mouse assessed as reduction in blood glucose level at 20 mg/kg, po pretreated for 30 mins followed by glucose challenge and measured up to 120 mins by OGTT; format: functional, organism-based
[6] = target: T1, Free fatty acid receptor 1; experiment: Potency index, ratio of EC50 for 2-(4-(([…]3-yl)methoxy)-2-fluorophenoxy)acetic acid to EC50 for test compound for Agonist activity at FFA1 receptor (unknown origin) stably expressed in CHO cells assessed as increase in calcium flux by Fluo4-AM based FLIPR assay; format: functional, cell-based
[7] = Cmax in Sprague-Dawley rat at 10 mg/kg, po measured for […] by LC-MS/MS analysis; format: ADME, organism-based; design: dose 10 mg/kg, route oral; settings: in vivo
[8] = AUC (0 to 24 hrs) in Sprague-Dawley rat at 10 mg/kg, po measured for […] by LC-MS/MS analysis; format: ADME, organism-based; design: time < 24 hr, dose 10 mg/kg, route oral; settings: in vivo; for AUC: 24 h
Mus musculus [9] = experiment: Antidiabetic activity in ICR mouse assessed as flattening of glucose curve after 1 hr at 20 mg/kg, po pretreated for 30 mins followed by glucose challenge and measured up to 120 mins by OGTT; format: functional, organism-based
[10] = Half life in Sprague-Dawley rat at 10 mg/kg, po measured for […] by LC-MS/MS analysis; format: ADME, organism-based; settings: in vivo
[11] = Clearance in Sprague-Dawley rat at 10 mg/kg, po measured for […] by LC-MS/MS analysis; format: ADME, organism-based; settings: in vivo
Mus musculus [12] = experiment: Antidiabetic activity in HFD fed/STZ-treated C57BL/6 mouse assessed as decrease in blood glucose at 20 mg/kg, po pretreated for 30 mins followed by glucose challenge and measured after up to 120 mins by OGTT; format: functional, organism-based
Mus musculus [13] = experiment: Antidiabetic activity in ICR mouse assessed as increase in GLP-1 secretion at 20 mg/kg, po pretreated with DPP4 inhibitor linagliptin for 1 hr followed by compound addition and measured after 4 hrs by ELISA; format: functional, organism-based
Mus musculus [14] = experiment: Antidiabetic activity in ICR mouse assessed as glucose-stimulated change in GLP-1 secretion at 20 mg/kg, po pretreated for 0.5 hrs followed by glucose challenge and measured after 5 mins by ELISA; format: functional, organism-based
Rattus norvegicus [15] = experiment: Antidiabetic activity in Sprague-Dawley rat assessed as change in blood glucose level in fasting state at 10 mg/kg, po pretreated for 1 hr followed by glucose challenge and measured up to 120 mins by OGTT; format: functional, organism-based
[16] = Acute toxicity in ICR mouse assessed as induction of side effects at 5 to 500 mg/kg, po daily for 7 days; format: organism-based; settings: in vivo, 168 h
[17] = Acute toxicity in ICR mouse assessed as change in liver morphology at 5 to 500 mg/kg, po daily for 7 days by H and E staining based histopathological analysis; format: organism-based; settings: in vivo, 168 h
Rattus norvegicus [18] = experiment: Antidiabetic activity in Sprague-Dawley rat assessed as increase in plasma insulin level at 10 mg/kg, po pretreated for 1 hr followed by glucose challenge and measured at 0 mins by ELISA; format: functional, organism-based
Rattus norvegicus [19] = experiment: Antidiabetic activity in Sprague-Dawley rat assessed as increase in plasma insulin level at 10 mg/kg, po administrated and measured up to 120 mins by ELISA; format: functional, organism-based
Rattus norvegicus [20] = experiment: Antidiabetic activity in Sprague-Dawley rat assessed as change plasma in insulin level at 10 mg/kg, po pretreated for 1 hr followed by glucose challenge by ELISA; format: functional, organism-based; settings: TDE = time-dependent effect
[21] = Acute toxicity in ICR mouse assessed as change in ALT level up to 500 mg/kg, po daily for 7 days; format: organism-based; settings: in vivo, 168 h
Rattus norvegicus [22] = experiment: Antidiabetic activity in Sprague-Dawley rat assessed as suppression in blood glucose excursion at 10 mg/kg, po pretreated for 1 hr followed by glucose challenge and measured up to 120 mins by OGTT; format: functional, organism-based
[23] = Acute toxicity in ICR mouse assessed as change in AST level up to 500 mg/kg, po daily for 7 days; format: organism-based; settings: in vivo, 168 h
Rattus norvegicus [24] = experiment: Antidiabetic activity in Sprague-Dawley rat assessed as change in blood glucose level at 10 mg/kg, po pretreated for 1 hr followed by glucose challenge by OGTT; format: functional, organism-based; settings: TDE = time-dependent effect

T1 sequence (O14842 whole entry): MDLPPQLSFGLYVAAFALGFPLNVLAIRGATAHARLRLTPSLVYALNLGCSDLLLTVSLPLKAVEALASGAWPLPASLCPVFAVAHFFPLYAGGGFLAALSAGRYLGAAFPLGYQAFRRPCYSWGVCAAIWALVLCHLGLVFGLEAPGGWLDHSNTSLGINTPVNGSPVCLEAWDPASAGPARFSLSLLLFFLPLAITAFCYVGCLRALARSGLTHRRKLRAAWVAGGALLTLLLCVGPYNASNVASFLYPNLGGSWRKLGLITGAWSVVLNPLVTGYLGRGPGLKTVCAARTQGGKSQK

Compound: CCCOc1ccc(-c2cccc(CNc3ccc(OCC(=O)O)c(F)c3)c2)c(C)c1
logD at 100 µM [1]: 3.37
EC50 [2]: 41.3 nM

Compound: Cc1cc(OCCO)ccc1-c1cccc(CNc2ccc(OCC(=O)O)c(F)c2)c1
Activity_index (Hepatocyte [3]): 14.3%
logD at 100 µM [1]: 1.65
Activity (Hepatocyte [4]): Toxic
EC50 [2]: 36.1 nM

Compound: CCOc1ccc(-c2cccc(CNc3ccc(OCC(=O)O)c(F)c3)c2)c(C)c1
Activity_index (Hepatocyte [3]): 19.3%
logD at 100 µM [1]: 2.83
Activity (Hepatocyte [4]): Toxic
Activity (Mus musculus [5]): Active
EC50 [2]: 11.6 nM

Compound: N#Cc1ccccc1-c1cccc(CNc2ccc(OCC(=O)O)c(F)c2)c1
EC50 [2]: 729 nM

Compound: Cc1ccccc1-c1cccc(CNc2ccc(OCC(=O)O)c(F)c2)c1
Activity_index (Hepatocyte [3]): 12.3%
logD at 100 µM [1]: 2.41
Cmax [7]: 187 µg/mL
AUC(0-t) at 24 h ([8]; Sprague-Dawley): 2870 µg·h/mL
Activity (Hepatocyte [4]): Toxic
Activity (Mus musculus [9]): Active
Activity (Mus musculus [5]): Active
half-life [10]: 5.42 h
CL/F ([11]; Sprague-Dawley): 0.109 mL/min/kg

Compound: Cc1cc(OCCCS(C)(=O)=O)cc(C)c1-c1cccc(CNc2ccc(OCC(=O)O)c(F)c2)c1
logD at 100 µM [1]: 1.73
EC50 [2]: 59.8 nM

Compound: O=C(O)COc1ccc(NCc2cccc(-c3ccccc3Cl)c2)cc1F
logD at 100 µM [1]: 2.71
Activity (Mus musculus [5]): Active
EC50 [2]: 19.3 nM

Compound: Cc1cc(OCCCS(C)(=O)=O)ccc1-c1cccc(CNc2ccc(OCC(=O)O)c(F)c2)c1
logD at 100 µM [1]: 1.59
EC50 [2]: 45.6 nM

Compound: COc1ccc(Cl)cc1C(=O)NCCc1ccc(S(=O)(=O)NC(=O)NC2CCCCC2)cc1
Activity (Rattus norvegicus [15]): Active

Compound: CC(C)c1ccccc1-c1cccc(CNc2ccc(OCC(=O)O)c(F)c2)c1
logD at 100 µM [1]: 3.45
EC50 [2]: 86.2 nM

Compound: O=C(O)COc1ccc(NCc2cccc(-c3ccccc3C(F)(F)F)c2)cc1F
Activity_index (Hepatocyte [3]): 29.6%
Activity (Mus musculus [12]): Active
logD at 100 µM [1]: 3.13
Cmax [7]: 322 µg/mL
Activity (Mus musculus [13]): Active
Activity [16]: Non-Toxic
Activity [17]: Non-Toxic
AUC [8]: 3909.33 µg·h/mL
Activity (Hepatocyte [4]): Toxic
Activity (Mus musculus [14]): inactive
Activity (Rattus norvegicus [18]): Active
Activity (Rattus norvegicus [19]): inactive
Activity (Rattus norvegicus [20]): Tde
Activity [21]: Non-Toxic
Activity (Mus musculus [5]): Active
EC50 [2]: 15.7 nM
Activity (Rattus norvegicus [22]): Active
Activity (Rattus norvegicus [15]): inactive
half-life [10]: 4.84 h
Activity [23]: Non-Toxic
CL [11]: 0.124 mL/min/kg
Activity (Rattus norvegicus [24]): Tde

Continued, in another order:

logD at 100 µM [1]: 3.61
EC50 [2]: 69.3 nM
Compound: CCOc1cc(C)c(-c2cccc(COc3ccc(OCC(=O)O)c(F)c3)c2)c(C)c1

logD at 100 µM [1]: 3.04
Ratio EC50 [6]: 3
EC50 [2]: 24.2 nM
Compound: CCOc1cc(C)c(-c2cccc(CNc3ccc(OCC(=O)O)c(F)c3)c2)c(C)c1
Activity (Mus musculus [5]): Active

EC50 [2]: 225 nM
Compound: Cc1noc(C)c1-c1cccc(CNc2ccc(OCC(=O)O)c(F)c2)c1

EC50 [2]: 536 nM
Compound: COc1ccccc1-c1cccc(CNc2ccc(OCC(=O)O)c(F)c2)c1

EC50 [2]: > 1000 nM
Compound: CCOc1cc(C)c(-c2cccc(COc3ccc(NCC(=O)O)c(F)c3)c2)c(C)c1

Cmax [7]: 87.4 µg/mL
AUC [8]: 1064.23 µg·h/mL
half-life [10]: 4.32 h
CL [11]: 0.4177 mL/min/kg
Compound: Cc1cc(OCCCS(C)(=O)=O)cc(C)c1-c1cccc(COc2ccc3c(c2)OC[C@H]3CC(=O)O)c1
Activity (Mus musculus [12]): Active
Activity (Mus musculus [13]): inactive
Activity (Hepatocyte [4]): Toxic
Activity (Mus musculus [14]): inactive
Activity (Mus musculus [5]): Active

logD at 100 µM [1]: 3.59
EC50 [2]: 38.7 nM
Compound: CCCOc1cc(C)c(-c2cccc(CNc3ccc(OCC(=O)O)c(F)c3)c2)c(C)c1

logD at 100 µM [1]: 2.23
EC50 [2]: 41.9 nM
Compound: COCCOc1ccc(-c2cccc(CNc3ccc(OCC(=O)O)c(F)c3)c2)c(C)c1

logD at 100 µM [1]: 2.25
EC50 [2]: 58.5 nM
Compound: O=C(O)COc1ccc(NCc2cccc(-c3ccccc3)c2)cc1F

logD at 100 µM [1]: 2.36
EC50 [2]: 36.5 nM
Compound: O=C(O)COc1ccc(NCc2cccc(-c3ccccc3F)c2)cc1F

EC50 [2]: 398 nM
Compound: CO/N=C(\COc1ccc(CNc2ccc(OCC(=O)O)c(F)c2)cc1)c1ccccc1

logD at 100 µM [1]: 2.47
EC50 [2]: 51.6 nM
Compound: COCCOc1cc(C)c(-c2cccc(CNc3ccc(OCC(=O)O)c(F)c3)c2)c(C)c1

logD at 100 µM [1]: 3.24
EC50 [2]: 22.5 nM
Compound: Cc1ccc(-c2cccc(CNc3ccc(OCC(=O)O)c(F)c3)c2)c(Cl)c1

EC50 [2]: 197 nM
Compound: CCOc1cc(C)c(-c2cccc(CNc3ccc(OCC(=O)O)cc3)c2)c(C)c1

logD at 100 µM [1]: 1.85
EC50 [2]: 69.6 nM
Compound: Cc1cc(O)ccc1-c1cccc(CNc2ccc(OCC(=O)O)c(F)c2)c1

logD at 100 µM [1]: 2.74
EC50 [2]: 51.7 nM
Compound: O=C(O)COc1ccc(NCc2ccc(Cl)c(-c3ccccc3)c2)cc1F
